Results: patent US9783859B2, “Method of screening and quantifying various enzymatic activities using artificial genetic circuits” (KOREA RESEARCH INSTITUTE OF BIOSCIENCE AND BIOTECHNOLOGY, priority 2009, dated 2017)

How the values were obtained:
[1] = tested on: artificial genetic circuit pGESS-EGFP (I) (dmpR); test: signals of artificial genetic circuit for various phenols, FACS fluorescence; type: cell-based, E. coli DH5α; details: 100 uM of each phenol derivative, 30° C. 18 hours
Excerpt: Whether the artificial genetic circuit senses the following phenol derivatives and the sensitivities of the genetic circuit to the phenol derivatives were examined: o-nitrophenol, m-nitrophenol, p-nitrophenol, o-chlorophenol, m-chlorophenol, p-chlorophenol, salicylic acid, 2-aminophenol, 2-methoxyphenol, o-cresol, m-cresol, p-cresol, catechol, resorcinol, 2-fluorophenol, 2-iodophenol, 2,4-dimethylphenol, 2,5-dimethylphenol, 3,4-dimethylphenol, 2,3-dimethylphenol, 3,5-dimethylphenol, 2,4-dichlorophenol, 2,5-dichlorophenol, 2,3-dichlorophenol, 2,6-dichlorophenol, 3,4-dichlorophenol, 3,5-dichlorophenol, 2,4-dinitrophenol, 3-methylcatechol, 2-ethylphenol, 3-ethylphenol, and benzene. Specifically, a single colony of E. coli DH5α containing pGESS-EGFP (I) was inoculated into LB liquid medium containing 50 μg/ml of ampicillin and was cultured overnight at 37° C. The culture was inoculated into LB medium containing 50 μg/ml of ampicillin to a concentration of 1% (v/v) and was cultured at 37° C. for about 8 hours until the OD600 of the cells reached 3. Then, 100 uM of each of the phenol derivatives was added to the culture which was then cultured with shaking at 30° C. for 18 hours. 100 μl of each culture was extracted, and the distribution of fluorescence in individual cells was examined by FACS. Each of the samples was tested three times, and the measurements were averaged.

[2] = tested on: artificial genetic circuit pGESS-Cm (II); test: response of chloramphenicol resistance reporter circuit to phenol derivatives, OD600; type: cell-based, E. coli EPI300; details: 100 μM of each phenol derivative, 30 μg/ml chloramphenicol, 37° C. 8 hours
Procedure: In the case of the artificial genetic circuit comprising chloramphenicol resistance gene as the reporter, whether the genetic circuit responds to the substrates was examined. […] The culture was inoculated into 50 μg/ml ampicillin-containing LB liquid medium to a concentration of 1% (v/v), and then 30 μg/ml of chloramphenicol and 100 μM of each of the phenol derivatives were added thereto and the cells were cultured with shaking at 37° C. for 8 hours. Then, the OD600 of the cells was measured, thereby examining whether the genetic circuit responded to the phenol derivatives. As a control group, cells containing 100 μM of phenol without containing chloramphenicol were used.

[3] = tested on: artificial genetic circuit pGESS-EGFP (I) (dmpR); type: cell-based, E. coli DH5α; details: 0.1-1000 μM tested, overnight at 30° C., LB medium
Procedure: The signals of the artificial genetic circuit for phenolic compounds were quantitatively analyzed. Specifically, a single colony of E. coli DH5α containing pGESS-EGFP (I) was inoculated into LB liquid medium containing 50 μg/ml of ampicillin and was cultured with shaking overnight at 37° C. The culture was inoculated into LB medium containing 50 μg/ml of ampicillin to a concentration of 1% (v/v), and 0.1-1000 μM of each of phenol, o-chlorophenol, m-chlorophenol, o-nitrophenol, catechol and resorcinol was added thereto and cultured with shaking overnight at 30° C. The cells were lysed, and the supernatant was analyzed by a fluorescence spectrometer (Varian, Australia), thereby measuring the fluorescence of GFP at 510 nm.

Row | Structure (SMILES) | response of the artificial genetic circuit (fluorescence, FACS) [1] | response of the artificial genetic circuit (chloramphenicol resistance, OD600) [2] | concentration from which fluorescence started to be sensed [3] [µM]
1 | Oc1cccc(Cl)c1Cl [2,3-dichlorophenol] | weakly responded |  | 
2 | Cc1cccc(O)c1C [2,3-dimethylphenol] | weakly responded | strongly responded | 
3 | Oc1cc(Cl)ccc1Cl [2,5-dichlorophenol] | weakly responded |  | 
4 | Cc1ccc(C)c(O)c1 [2,5-dimethylphenol] | weakly responded |  | 
5 | Nc1ccccc1O [2-aminophenol] | strongly responded |  | 
6 | CCc1ccccc1O [2-ethylphenol] | strongly responded | strongly responded | 
7 | Oc1ccccc1F [2-fluorophenol] | strongly responded | strongly responded | 
8 | Oc1ccccc1I [2-iodophenol] | strongly responded | strongly responded | 
9 | COc1ccccc1O [2-methoxyphenol] | strongly responded | strongly responded | 
10 | Oc1ccccc1O [catechol] | strongly responded | strongly responded | 10
11 | Oc1cccc(Cl)c1 [m-chlorophenol] | weakly responded | strongly responded | 1
12 | Cc1cccc(O)c1 [m-cresol] | strongly responded | strongly responded | 
13 | O=[N+]([O-])c1cccc(O)c1 [m-nitrophenol] | weakly responded | strongly responded | 
14 | Oc1ccccc1Cl [o-chlorophenol] | strongly responded | strongly responded | ≤ 0.1
15 | Cc1ccccc1O [o-cresol] | strongly responded | strongly responded | 
16 | O=[N+]([O-])c1ccccc1O [o-nitrophenol] | strongly responded | strongly responded | 10
17 | Oc1ccc(Cl)cc1 [p-chlorophenol] | weakly responded | weakly responded to or did not respond | 
18 | Cc1ccc(O)cc1 [p-cresol] | weakly responded | weakly responded to or did not respond | 
19 | O=[N+]([O-])c1ccc(O)cc1 [p-nitrophenol] | did not respond | weakly responded to or did not respond | 
20 | Oc1cccc(O)c1 [resorcinol] |  |  | 100
